Source: patent US20090000631A1, “Smoking articles and method for incorporating salts of lanthanide metals for reducing TPM cytotoxicity and targeted constituents in tobacco smoke” (Philip Morris USA Inc., priority 2007, published 2009)

Assays:
[1] = Relative phenolic and PAH contents of mainstream TPM by GC/MS (FTC smoking, 3rd and 4th puffs); conditions: change of relative content in mainstream TPM, tobacco treated with acetate salt alone
Excerpt: (§1) Under FTC conditions, the 3rd and 4th puffs of the mainstream TPM are collected. The relative phenolic and PAH contents are obtained by GC/MS methods. The TPM cytotoxicity data is obtained using the Neutral Red Uptake, while mutagenicity data is obtained using Ames assays.
(§2) Under FTC conditions, the 3rd and 4th puffs of the mainstream TPM are collected. The relative phenolic and PAH contents are obtained by GC/MS methods. The TPM cytotoxicity and mutagenicity data are obtained using Neutral Red Uptake and Ames assays, respectively.

[2] = tested on: TPM cytotoxicity; assay: TPM cytotoxicity, Neutral Red Uptake; format: cell-based; conditions: change of TPM cytotoxicity; tobacco treated with acetate salt alone; FTC, 3rd and 4th puffs
Excerpt: as §1, §2

[3] = tested on: TPM mutagenicity; assay: TPM mutagenicity, Ames assays; format: cell-based; conditions: for Mutagenicity: change of TPM mutagenicity, tobacco treated with acetate salt alone, FTC, 3rd and 4th puffs; for mutagenicity of the mainstream smoke (in words): mainstream smoke TPM of treated tobacco
Excerpt: as §1, §2

Row | SMILES | HQ [1] [%] | Naphthalene [1] [%] | catechol [1] [%] | resorcinol [1] | Cytotoxicity [2] | Mutagenicity [3] | mutagenicity of the mainstream smoke (in words) [3]
1 | CC(=O)[O-].CC(=O)[O-].CC(=O)[O-].O.[Ce+3] [7.4% Ce(OAc)3•H2O, Ce(OAc)3•H2O] | −23 | −47 | −54 | — (No significant change (absolute change <20%)) | — (No significant change (absolute change <20%)) | — (No significant change (absolute change <20%)) | –
2 | CC(=O)[O-].CC(=O)[O-].CC(=O)[O-].O.[Lu+3] [8.2% Lu(OAc)3•H2O, Lu(OAc)3•H2O] | −49 | −33 | −33 | −39% | — (No significant change (absolute change <20%)) | — (No significant change (absolute change <20%)) | reduced
3 | CC(=O)[O-].CC(=O)[O-].CC(=O)[O-].[La+3] [8% La(OAc)3•xH2O (x ≦ 2), La(OAc)3•xH2O] | −60 | −51 | −41 | −56% | −25% | −46% | reduced
4 | CC(=O)[O-].CC(=O)[O-].CC(=O)[O-].O.[Eu+3] [8% Eu(OAc)3•H2O, Eu(OAc)3•H2O] | −39 | −54 | −48 | −33% | — (No significant change (absolute change <20%)) | −21% | reduced
